Laboratory results taken from patent publication US20160095867A1, “BET INHIBITION THERAPY FOR HEART DISEASE” (DANA-FARBER CANCER INSTITUTE, INC., priority 2013, published 2016).

How the values were obtained:
mice subject to TAC [1] = test: Transverse aortic constriction (TAC) model, JQ1 begun 1.5 days after TAC; format: in vivo, mouse
Description: JQ1 was synthesized and purified in the laboratory of Dr. James Bradner (DFCI) as previously published (Filippakopoulos et al., 2010). For in vivo experiments, a stock solution (50 mg/mL in DMSO) was diluted to a working concentration of 5 mg/mL in aqueous carrier (10% hydroxypropyl β-cyclodextrin; Sigma C0926) using vigorous vortexing. Mice were injected at a dose of 50 mg/kg given intraperitoneally once daily. Vehicle controls were given an equal amount of DMSO in carrier solution. All solutions were prepared and administered using sterile technique. For in vitro experiments, JQ1 and other BET inhibitors were dissolved in DMSO and administered to cells at indicated concentrations using an equal volume of DMSO as control. The BET inhibitors used were as follows: iBET, iBET-151, RVX-208, and PF-1.
All mice were C57Bl/6J littermate males aged 10-12 weeks. For TAC, mice were anesthetized with ketamine/xylazine, mechanically ventilated (Harvard apparatus), and subject to thoracotomy. The aortic arch was constricted between the left and right carotid arteries using a 7.0 silk suture and a 27-gauge needle as previously described (Hu et al., 2003). In our hands, this protocol a consistent peak pressure gradient of approximately 50 mmHg across the constricted portion of the aorta. For PE infusion, mice were anesthetized using continuous 1% inhalational isofluorane. Mini-osmotic pumps (Alzet 2004, Durect Corp.) were filled with phenylephrine hydrochloride (PE, Sigma) or vehicle (normal saline) and implanted subcutaneously on the dorsal aspect of the mouse. PE was infused at a dose of 75 mg/kg/day for 17 days. Injections of JQ1 or vehicle were begun 1.5 days postoperatively.
For transthoracic echocardiography, mice were anesthetized with 1% inhalational isofluorane and imaged using the Vevo 770 High Resolution Imaging System (Visual Sonics, Inc.) and the RMV-707B 30 MHz probe. Measurements were obtained from M-mode sampling and integrated EKV images taken in the LV short axis at the mid-papillary level (Haldar et al., 2010). Measurements of pressure gradients across the constricted portion of the aorta were obtained by high frequency Doppler as previously described (Liu et al., 2012). Conscious tail-vein systolic blood pressure was measured using the BP2000 Blood Pressure Analysis System (Visitech Systems, Inc.) as recommended by the manufacturer. To allow mice to adapt to the apparatus, we performed daily blood pressure measurements for one week prior to beginning experiments. Treadmill endurance exercise testing was performed on a motorized mouse treadmill (Columbus Instruments) as previously described (Haldar et al., 2012).
Short-axis heart sections from the mid-ventricle were fixed in PBS/4% paraformaldehyde and embedded in paraffin. Cardiomyocyte cross sectional area was determined by staining with rhodamine-conjugated wheat-germ agglutinin (Vector Laboratories RL-1022) as quantified as previously described (Froese et al., 2011). Fibrosis was visualized using Masson's Trichrome staining kit (Biocare medical) with quantification of fibrotic area as previously described (Song et al., 2010). Terminal deoxynucleotidyl transferase dUTP nick-end label (TUNEL) staining and quantification was performed as previously described (Song et al., 2010) using the ApopTag Plus kit (Millipore) according to manufacturer's instructions. Myocardial capillary staining was performed in frozen LV sections using anti-PECAM-1 antibodies (EMD Millipore cat#CBL-1337) as previously described (Haldar et al., 2010).

mice subject to TAC [2] = test: TAC model with pre-established pathology, JQ1 begun day 18 post-TAC; format: in vivo, mouse
From the text: Adult mice were subjected to pressure overload using transverse aortic constriction (TAC). JQ1 or vehicle was begun on day 18 post-TAC, a time point when significant pathology has already developed (FIG. 11). […] (N=6-12 per group). […] For example, patients typically present with pre-existing or established cardiac hypertrophy and/or heart failure.

[3] = adult mice, 50 mg/kg/day; cited from earlier work
[4] = JQ1 50 mg/kg/day IP from 1.5 days after TAC, out to 4 weeks

Cc1sc2c(c1C)C(c1ccc(Cl)cc1)=N[C@@H](CC(=O)OC(C)(C)C)c1nnc(C)n1-2 [JQ1]
tolerability during TAC (activity, mortality, weight loss vs vehicle) (mice subject to TAC [1]; JQ1 50 mg/kg/day): well tolerated | TAC-mediated LV cavity dilation (echocardiography) (mice subject to TAC [1]; [4]): protected against | TAC-mediated LV systolic dysfunction (echocardiography) (mice subject to TAC [1]; [4]): protected against | TAC-mediated LV wall thickening (echocardiography) (mice subject to TAC [1]; [4]): protected against | pathologic cardiomegaly (HW/BW) (mice subject to TAC [1]; JQ1 50 mg/kg/day, 4 weeks TAC): inhibited | pulmonary congestion (LW/BW) (mice subject to TAC [1]; JQ1 50 mg/kg/day, 4 weeks TAC): inhibited | myocardial expression of canonical hypertrophic marker genes (mice subject to TAC [1]; JQ1 50 mg/kg/day, after TAC): inhibited | effect on LV structure or function in sham treated mice (mice subject to TAC [1]; JQ1 50 mg/kg/day, sham surgery): no adverse effect | TAC-mediated induction of c-Myc expression in vivo (mice subject to TAC [1]; TAC mouse hearts, qRT-PCR): no effect | evolution of pathological gene expression program in the heart (microarray GEP) (mice subject to TAC [1]; TAC, 3, 11 and 28 days): suppressed | apoptotic cell death (TUNEL) (mice subject to TAC [1]; heart tissue, 4 weeks of TAC): significantly attenuated | capillary rarefaction (PECAM-1) (mice subject to TAC [1]; heart tissue, 4 weeks of TAC): significantly attenuated | development of cardiomyocyte hypertrophy (wheat germ agglutinin, cardiomyocyte area) (mice subject to TAC [1]; heart tissue, 4 weeks of TAC): significantly attenuated | myocardial fibrosis (Masson's Trichrome) (mice subject to TAC [1]; heart tissue, 4 weeks of TAC): significantly attenuated | progression of LV cavity dilation (mice subject to TAC [2]): significantly attenuates | progression of LV systolic dysfunction (mice subject to TAC [2]): significantly attenuates | progression of LV wall thickening (mice subject to TAC [2]): significantly attenuates | progression of cardiomegaly (mice subject to TAC [2]): significantly attenuates | toxicity on chronic administration [3]: without significant toxicity
